Drawing on patent US20220273659A1, “HETEROCYCLIC COMPOUNDS AS KINASE INHIBITORS” (NUVATION BIO INC., priority 2019, published 2022), this text covers IC50 for 17 molecules.

Some results are limits rather than exact numbers.

For one assay, the target named is T1, CDK4 (Homo sapiens, UniProt P11802).
T1 construct: purchased Invitrogen PR8064A
In words: In vitro kinase inhibition IC50, luminescence (ADP Glo), retinoblastoma substrate. In kind it is biochemical. Conditions: read-out: CDK4/D1 IC50. How it is done: (§1) IC50 values of compounds against CDK4 and CDK6 were determined by luminescence using retinoblastoma as substrate. Kinase assays were performed in kinase buffer (#PV6135, Invitrogen Life Technologies, Grand Island, N.Y.) where total reaction volume was […] in 96-well half area white plates (#3693, Costar). One microliter of 25×test compounds at specific concentrations (e.g., final concentration range: 0.1 nM-200 nM) was mixed with 10 μL of 2.5×kinase (5 nM, CDK4 #PR8064A and CDK6 #PR8422B, Invitrogen) solution and 14 μL of 4× mixed solution with retinoblastoma (1 μM, #12-439, EMD Millipore, Hayward, Calif.) and ATP (25 μM, #V7038, Promega, Madison, Wis.). The plates were covered and incubated for 2H at room temperature. At the end of incubation, 25 μL of stop solution—ADP Glo reagent (#V7002, Promega) was added. After incubation for 45 min at room temperature, 50 μL of detection reagent (##V7002, Promega) was added. Readings were taken at 15 min and 45 min incubation after detection reagent was added in a Synergy Neo Plate reader (BioTek, Winooski, Vt.) at single excitation of 340 nm and Dual emission at 495 nm and 520 nm respectively. The following equations were used in the CDK4 and CDK6 assay data analysis. Percent inhibition (100-% activity) was fitted to the “four-parameter logistic model” in XLfit for determination of IC50 values.
(§2) Percent conversion of enzyme=100−{(RLUNo Drug−No enzyme*100)/RLUNo drug+Enzyme} Equation 1:
(§3) Percent conversion at each data point=100−{(RLUAverage(Drug+enzyme)*100)!RLUNo drug+Enzyme} Equation 2:
(§4) Percent Inhibition=100*(% Conversioneach data point/% ConversionEnzyme) Equation 3: […]
On the technique in general: ADP-Glo first removes unused ATP, then detects ADP through luciferase.

The target in another assay is T2, CDK6 (Homo sapiens, UniProt Q00534).
T2 construct: purchased Invitrogen PR8422B
Described as above. In kind it is biochemical. Conditions: read-out: CDK6/D1 IC50. The procedure:
as §1, §2, §3, §4

In assay [1] the test system is DU4475 breast carcinoma cells. The assay can be described thus: Cancer cell proliferation assay, single agent (cell viability). Conditions: Homo sapiens, DU-4475; Table 4; Rb negative; treatment 144 Hr with medium change at 72 Hr; Cell Titer-Glo or resazurin. It counts as cell-based. The procedure: (§5) The effects of test compounds were studied in three breast cancer cell lines of different subtype. The cancer cells (Table 3) were harvested during the logarithmic growth period and counted. Cell concentrations were adjusted to the appropriate number with respective medium and 90 μL cell suspensions were added to 96-well plates. After cells were seeded, the plates were shaken gently to distribute cells evenly and incubated at 37° C., 5% CO2 on day 1.
(§6) Cells were treated with test compounds at 7 to 9 concentrations within a desired concentration range (e.g. 1.1 nM-10 μM) on day 2 by series diluting the test compound stock solution (10 mM in DMSO) with culture medium. Treatment duration was 24 Hr for BT-549 cells and 144 Hr (with a medium change at 72 Hr) for MCF-7 and DU4475 cells. Cell viability was assessed by Cell Titer-Glo® as recommended by Promega (Cat. No.: G7572), or by resazurin assay (Sigma Aldrich, Cat. No.: R7017) post treatment.
(§7) Cell viability data were plotted using GraphPad Prism (GraphPad Software, Inc., San Diego, Calif.). In addition, a nonlinear regression model with a sigmoidal dose response and variable slope within GraphPad Prism was used to calculate the IC50 value of individual test compounds.
In general terms: ATP-based viability assays read luminescence as a measure of living cells.

The subject of assay [2] is MCF-7 breast adenocarcinoma cells. Described as above. In kind it is cell-based. The following applies: Homo sapiens, MCF7, Table 4; Rb positive; treatment 144 Hr with medium change at 72 Hr; Cell Titer-Glo or resazurin. How it is done:
as §5, §6, §7

T2 sequence (Q00534 whole entry): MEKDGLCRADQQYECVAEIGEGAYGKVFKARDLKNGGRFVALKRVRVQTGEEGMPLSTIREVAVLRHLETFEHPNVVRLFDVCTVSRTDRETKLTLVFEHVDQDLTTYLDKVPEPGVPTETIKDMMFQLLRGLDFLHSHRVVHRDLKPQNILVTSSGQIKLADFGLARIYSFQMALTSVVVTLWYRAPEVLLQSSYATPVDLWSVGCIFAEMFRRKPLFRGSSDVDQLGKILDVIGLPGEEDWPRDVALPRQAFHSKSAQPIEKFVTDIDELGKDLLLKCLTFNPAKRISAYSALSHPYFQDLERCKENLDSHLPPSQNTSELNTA
T2 sequence (P24385 whole entry partner): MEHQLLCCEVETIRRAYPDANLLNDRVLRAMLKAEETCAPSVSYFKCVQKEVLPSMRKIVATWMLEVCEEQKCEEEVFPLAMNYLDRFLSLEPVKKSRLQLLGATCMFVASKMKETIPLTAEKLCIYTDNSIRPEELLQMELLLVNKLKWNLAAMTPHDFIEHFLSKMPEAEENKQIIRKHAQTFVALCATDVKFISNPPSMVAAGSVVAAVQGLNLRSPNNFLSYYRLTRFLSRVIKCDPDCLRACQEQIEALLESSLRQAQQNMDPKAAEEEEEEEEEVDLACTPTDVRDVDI
T1 sequence (P11802 whole entry): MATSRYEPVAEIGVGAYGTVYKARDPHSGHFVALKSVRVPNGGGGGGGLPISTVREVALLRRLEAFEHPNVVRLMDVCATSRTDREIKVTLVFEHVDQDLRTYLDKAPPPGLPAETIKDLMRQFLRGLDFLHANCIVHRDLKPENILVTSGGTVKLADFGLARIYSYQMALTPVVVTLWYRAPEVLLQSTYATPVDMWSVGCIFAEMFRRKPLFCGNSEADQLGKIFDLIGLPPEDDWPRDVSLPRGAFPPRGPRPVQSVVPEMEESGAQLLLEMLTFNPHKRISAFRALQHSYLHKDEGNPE
T1 sequence (P24385 whole entry partner): as the sequence (P24385 whole entry partner) above

For the molecule `CC1(C)CCCC1n1c(=O)c(C#N)cc2cnc(NC3CCN(S(C)(=O)=O)CC3)nc21` (stereo not shown) [Compound No. 388, 8-(2,2-dimethylcyclopentyl)-2-(1-(methylsulfonyl)piperidin-4-ylamino)-7-oxo-7,8-dihydropyrido[2,3-d]pyrimidine-6-carbonitrile], the IC50 is 11 nM at CDK4, 9 nM at CDK6 and greater than 5260 nM in assay [1].

Take `CN(C)CCN1CCC(Nc2ncc3cc(C#N)c(=O)n(C4CCCC4)c3n2)CC1` [Compound No. 67, 8-cyclopentyl-2-((1-(2-(dimethylamino)ethyl)piperidin-4-yl)amino)-7-oxo-7,8-dihydropyrido[2,3-d]pyrimidine-6-carbonitrile]: the IC50 on CDK4 was greater than 140 nM; on CDK6 it was greater than 200 nM; in assay [1], 4450 nM; in assay [2], 1640 nM.

For `CC(C)Cn1c(=O)c(C#N)cc2cnc(Nc3ccc4c(c3)CCNC4)nc21` [Compound No. 81, 8-isobutyl-7-oxo-2-((1,2,3,4-tetrahydroisoquinolin-6-yl)amino)-7,8-dihydropyrido[2,3-d]pyrimidine-6-carbonitrile], the IC50 was greater than 200 nM on CDK4, 137 nM at CDK6, 585 nM in assay [1] and 641 nM in assay [2].

`N#Cc1cc2cnc(Nc3cc4c(cc3F)CNCC4)nc2n(C2CCCC2)c1=O` [Compound No. 84, 8-cyclopentyl-2-((7-fluoro-1,2,3,4-tetrahydroisoquinolin-6-yl)amino)-7-oxo-7,8-dihydropyrido[2,3-d]pyrimidine-6-carbonitrile]: the IC50 is greater than 200 nM on CDK4, 116 nM at CDK6, 2520 nM in assay [1] and 2000 nM in assay [2].

As to `CN(C)CCN1CCc2ccc(Nc3ncc4cc(C#N)c(=O)n(C5CCCC5)c4n3)cc2C1` [Compound No. 62, 8-cyclopentyl-2-((2-(2-(dimethylamino)ethyl)-1,2,3,4-tetrahydroisoquinolin-7-yl)amino)-7-oxo-7,8-dihydropyrido[2,3-d]pyrimidine-6-carbonitrile], the IC50 on CDK4 came to 14 nM; on CDK6, 4 nM; in assay [1] it was 1260 nM; in assay [2], 594 nM.

Consider `N#Cc1cc2cnc(Nc3ccc4c(c3)CCCC(=O)N4)nc2n(C2CCCC2)c1=O` [Compound No. 83, 8-cyclopentyl-7-oxo-2-((2-oxo-2,3,4,5-tetrahydro-1H-benzo[b]azepin-7-yl)amino)-7,8-dihydropyrido[2,3-d]pyrimidine-6-carbonitrile], for which the IC50 at CDK4 amounted to 84 nM; at CDK6, 24 nM; in assay [1], 820 nM; in assay [2], 1060 nM.

As to `CN(C)CCN1CCc2nc(Nc3ncc4cc(C#N)c(=O)n(C5CCCC5)c4n3)ccc2C1` [Compound No. 64, 8-cyclopentyl-2-((6-(2-(dimethylamino)ethyl)-5,6,7,8-tetrahydro-1,6-naphthyridin-2-yl)amino)-7-oxo-7,8-dihydropyrido[2,3-d]pyrimidine-6-carbonitrile], the IC50 on CDK4 was greater than 200 nM; at CDK6, 32 nM; in assay [1], 4740 nM; in assay [2], 3590 nM.

On to `CN(C)CCN1CCC(n2ccc(Nc3ncc4cc(C#N)c(=O)n(C5CCCC5)c4n3)cc2=O)CC1` [Compound No. 73, 8-cyclopentyl-2-((1-(1-(2-(dimethylamino)ethyl)piperidin-4-yl)-2-oxo-1,2-dihydropyridin-4-yl)amino)-7-oxo-7,8-dihydropyrido[2,3-d]pyrimidine-6-carbonitrile], for which the IC50 is 15 nM on CDK4, 28 nM at CDK6, greater than 8430 nM in assay [1] and 1590 nM in assay [2].

With `CN(C)CCN1Cc2cc(Nc3ncc4cc(C#N)c(=O)n(C5CCCC5)c4n3)ccc2C(C)(C)C1` [Compound No. 76, 8-cyclopentyl-2-((2-(2-(dimethylamino)ethyl)-4,4-dimethyl-1,2,3,4-tetrahydroisoquinolin-7-yl)amino)-7-oxo-7,8-dihydropyrido[2,3-d]pyrimidine-6-carbonitrile], the IC50 at CDK4 worked out at 9.5 nM; at CDK6, 6 nM; in assay [1], 660 nM; in assay [2], 793 nM.

Regarding `N#Cc1cc2cnc(Nc3cnc4c(c3)CNCC4)nc2n(C2CCCC2)c1=O` [Compound No. 77, 8-cyclopentyl-7-oxo-2-((5,6,7,8-tetrahydro-1,6-naphthyridin-3-yl)amino)-7,8-dihydropyrido[2,3-d]pyrimidine-6-carbonitrile], the IC50 at CDK4 worked out at 132 nM; on CDK6, 43 nM; in assay [1], 4560 nM; in assay [2], 452 nM.

With `COCCN1CCc2cc(Nc3ncc4cc(C#N)c(=O)n(C5CCCC5)c4n3)ccc2C1` [Compound No. 75, 8-cyclopentyl-2-((2-(2-methoxyethyl)-1,2,3,4-tetrahydroisoquinolin-6-yl)amino)-7-oxo-7,8-dihydropyrido[2,3-d]pyrimidine-6-carbonitrile], the IC50 at CDK4 was determined as 7 nM; at CDK6, 5.5 nM; in assay [1], 1050 nM; in assay [2] it was 598 nM.

For the molecule `N#Cc1cc2cnc(Nc3ccc4c(c3)CCCNC4=O)nc2n(C2CCCC2)c1=O` [Compound No. 82, 8-cyclopentyl-7-oxo-2-((1-oxo-2,3,4,5-tetrahydro-1H-benzo[c]azepin-7-yl)amino)-7,8-dihydropyrido[2,3-d]pyrimidine-6-carbonitrile], the IC50 on CDK4 was greater than 200 nM; on CDK6 it was 131 nM; in assay [1], 250 nM; in assay [2] it was 305 nM.

For the molecule `N#Cc1cc2cnc(Nc3ccc4c(c3)CCNC4)nc2n(CC2CC2)c1=O` [Compound No. 85, 8-(cyclopropylmethyl)-7-oxo-2-((1,2,3,4-tetrahydroisoquinolin-6-yl)amino)-7,8-dihydropyrido[2,3-d]pyrimidine-6-carbonitrile], the IC50 on CDK4 was greater than 200 nM; at CDK6, greater than 190 nM; in assay [1], 725 nM; in assay [2], 723 nM.

As to `N#Cc1cc2cnc(Nc3ccc4c(c3)CNCCC4)nc2n(C2CCCC2)c1=O` [Compound No. 78, 8-cyclopentyl-7-oxo-2-((2,3,4,5-tetrahydro-1H-benzo[c]azepin-8-yl)amino)-7,8-dihydropyrido[2,3-d]pyrimidine-6-carbonitrile], the IC50 on CDK4 is 33 nM; at CDK6, 15 nM; in assay [1], 1670 nM; in assay [2], 751 nM.

Regarding `CN(C)CCCN1CCc2cc(Nc3ncc4cc(C#N)c(=O)n(C5CCCC5)c4n3)ccc2C1` [Compound No. 72, 8-cyclopentyl-2-((2-(3-(dimethylamino)propyl)-1,2,3,4-tetrahydroisoquinolin-6-yl)amino)-7-oxo-7,8-dihydropyrido[2,3-d]pyrimidine-6-carbonitrile], the IC50 on CDK6 stood at 1 nM; in assay [1] it was 985 nM; in assay [2], 330 nM.

Turning to `Cc1c(C#N)c(=O)n(C2CCCC2)c2nc(NC3CCN(S(C)(=O)=O)CC3)ncc12` [Compound No. 389, 8-cyclopentyl-5-methyl-2-(1-(methylsulfonyl)piperidin-4-ylamino)-7-oxo-7,8-dihydropyrido[2,3-d]pyrimidine-6-carbonitrile], the results for the IC50 (at CDK4; at CDK6; in assay [1]) were 7.5 nM, 11 nM and 4220 nM, respectively.

For `CC(=O)N1CCc2cc(Nc3ncc4cc(C#N)c(=O)n(C5CCCC5)c4n3)ccc2C1` [Compound No. 71, 2-((2-acetyl-1,2,3,4-tetrahydroisoquinolin-6-yl)amino)-8-cyclopentyl-7-oxo-7,8-dihydropyrido[2,3-d]pyrimidine-6-carbonitrile], the IC50 was 5 nM at CDK6, 1650 nM in assay [1] and 793 nM in assay [2].
